Experimental data: PubChem BioAssay AID2060353 (Molecular Pharmacology Branch, DTP, NCI, 2025)
Where “and” joins values, the source holds several entries; their conditions need not be identical. Identical values can stand only once.

Tested on: 521955-158-R2-J5-PDC spheroids with stroma, growth inhibition
Test: Anticancer human tumor 521955-158-R2-J5-PDC patient-derived pancreatic carcinoma cell line growth inhibition [TAK]
Conditions: for viability, T/C: stronger effect = lower value
Source text: Combinatorial screen of targeted agents with TAK-243 and ipatasertib in multi-cell type tumor spheroids
A high-throughput screen of multi-cell type tumor spheroids was designed to identify active combinations of targeted small molecules and TAK-243 or ipatasertib. Complex spheroids include a stromal component modeled by human endothelial cells (HUVEC) and fibroblasts modeled by human mesenchymal stem cells (MSCs). The concentration ranges selected for each drug and investigational agent were based upon clinically achievable concentrations if the clinical Cmax of the agent was known.
Compounds. The drugs and investigational agents: TAK-243 (785004), ipatasertib (767898), everolimus (733504), selumetinib (741078), bortezomib (756655), trametinib (758246), ixazomib (758254), vemurafenib (761431), dabrafenib (764134), sapanisertib (764658), alpelisib (765974), and copanlisib (816437), were obtained from the National Cancer Institute (NCI) Developmental Therapeutics Program Chemical Repository. The FDA-approved anticancer drug set is available from the NCI Developmental Therapeutics Program. […] The stock solutions were prepared in dimethyl sulfoxide (DMSO, Sigma-Aldrich, St. Louis, MO, cat. D2650) at 800-fold the tested concentration and stored at -70 degrees C prior to their use. All drugs and investigational agents were tested over a range starting from a high concentration at or near the clinical Cmax and decreasing in half-log increments. If the clinical Cmax for an agent had not been determined, the highest concentration tested was 10 microM.
NCI60 Cell Culture. NCI60 cell lines were obtained from the NCI Developmental Therapeutics Program Tumor Repository. For each lot of cells, the Repository performed Applied Biosystems AmpFLSTR Identifiler testing with PCR amplification to confirm consistency with the published Identifier STR profile for each cell line. Cells were kept in continuous culture for no more than 20 passages. The optimal seeding densities for each of the cell lines at each time point assessed were determined prior to performing the concentration response studies. Briefly, the NCI60 human tumor lines were grown as monolayers in RPMI 1640 medium supplemented with 10% FBS and 2 mmol/L L-glutamine.
An additional 2 lines were from the NCI60 cell line panel including melanomas, MALME-3M and SK-MEL-2. Pooled donor human umbilical vein endothelial cells (HUVEC, Lonza, cat. CC-2519) and human mesenchymal stem cells (hMSC, Lonza, cat. PT-2501) were purchased from Lonza (Walkersville, MD).
PDMR cell lines were grown in complete medium (DC medium): Dulbecco's modified Eagle's medium (DMEM)/F12 supplemented with 5% fetal bovine serum (FBS), 2 mM L-glutamine, 100 U/mL penicillin and 100 µg/ml streptomycin, 0.4 µg/ml hydrocortisone, 10 ng/ml epidermal growth factor (EGF) recombinant human protein, 24 µg/mL adenine, and 0.1 mg/mL primocin. During culture from frozen stock vials, PDMR cells were cultured in the same medium containing 10 µM Y-27632 (see Table 3). The PDCs were cultured in complete DMEM/F12 media without 10 microM Y-27632 dihydrochloride for at least two passages prior to the screen. The pooled donor HUVEC and hMSC were cultured in endothelial cell growth medium 2 (PromoCell, Heidelberg, Germany, cat. C-22011) and mesenchymal stem cell growth medium 2 (PromoCell, cat. C-28009), respectively. For all experiments, HUVEC and hMSC were used at passages </=5.
For the pre-screen, cell seeding densities were determined from a titration spanning the range from 5,000 to 313 cells per well. The mct-spheroids including 60% malignant cells, 25% HUVEC and 15% MSC dispensed as a mixture into U-bottom Ultra-Low Attachment 384-well plates (Corning, NY)
High-throughput Drug Combination Screening.
Prior to their inoculation into 384-well plates, malignant cells, HUVEC, and hMSC were removed from T flasks using TrypLE express (Thermo Fisher Scientific, cat. 12605036) and harvested by centrifugation for 5 min at 233 x g. […]
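Also: spheroids exposed to drugs for seven days before readout.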
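For viability, T/C in this document: 100% = DMSO vehicle control viability.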

CC(=O)Nc1cccc(-n2c(=O)n(C3CC3)c(=O)c3c(Nc4ccc(I)cc4F)n(C)c(=O)c(C)c32)c1
viability, T/C (compound 94.9 pM): 104% and 87%
viability, T/C (compound 0.0003 µM): 79.1% and 65.4%
viability, T/C (compound 0.000949 µM): 52% and 51.3%
viability, T/C (compound 0.003 µM): 48.2% and 48.1%
viability, T/C (compound 0.00949 µM): 38.6% and 39.5%
viability, T/C (compound 0.03 µM): 27.5% and 24.4%
IC50 (curve of compound): 1.87 nM and 1.69 nM

CC(C)CC(NC(=O)C(Cc1ccccc1)NC(=O)c1cnccn1)B(O)O (centres undefined) + CC(C)NCC(C(=O)N1CCN(c2ncnc3c2C(C)CC3O)CC1)c1ccc(Cl)cc1
IC50 (curve of first compound, second compound 0.3 µM): 5.69 nM
IC50 (curve of first compound, second compound 0.949 µM): 5.25 nM
IC50 (curve of first compound, second compound 3 µM): 4.97 nM
IC50 (curve of first compound, second compound 9.49 µM): 5.95 nM
IC50 (curve of first compound, second compound 30 µM): 3.86 nM
viability, T/C (second compound 0.3 µM, first compound 31.6 pM): 105%
viability, T/C (second compound 0.3 µM, first compound 0.0001 µM): 101%
viability, T/C (second compound 0.3 µM, first compound 0.000316 µM): 91.4%
viability, T/C (second compound 0.3 µM, first compound 0.001 µM): 92.8%
viability, T/C (second compound 0.3 µM, first compound 0.00316 µM): 93.9%
viability, T/C (second compound 0.3 µM, first compound 0.01 µM): 7.88%
viability, T/C (second compound 0.949 µM, first compound 31.6 pM): 80.2%
viability, T/C (second compound 0.949 µM, first compound 0.0001 µM): 85.4%
viability, T/C (second compound 0.949 µM, first compound 0.000316 µM): 78.1%
viability, T/C (second compound 0.949 µM, first compound 0.001 µM): 82.6%
viability, T/C (second compound 0.949 µM, first compound 0.00316 µM): 91.8%
viability, T/C (second compound 0.949 µM, first compound 0.01 µM): 7.37%
viability, T/C (second compound 3 µM, first compound 31.6 pM): 70%
viability, T/C (second compound 3 µM, first compound 0.0001 µM): 81.6%
viability, T/C (second compound 3 µM, first compound 0.000316 µM): 76.6%
viability, T/C (second compound 3 µM, first compound 0.001 µM): 78.2%
viability, T/C (second compound 3 µM, first compound 0.00316 µM): 81.8%
viability, T/C (second compound 3 µM, first compound 0.01 µM): 7.09%
viability, T/C (second compound 9.49 µM, first compound 31.6 pM): 100%
viability, T/C (second compound 9.49 µM, first compound 0.0001 µM): 110%
viability, T/C (second compound 9.49 µM, first compound 0.000316 µM): 111%
viability, T/C (second compound 9.49 µM, first compound 0.001 µM): 94.3%
viability, T/C (second compound 9.49 µM, first compound 0.00316 µM): 113%
viability, T/C (second compound 9.49 µM, first compound 0.01 µM): 4.23%
viability, T/C (second compound 30 µM, first compound 31.6 pM): 54.3%
viability, T/C (second compound 30 µM, first compound 0.0001 µM): 64.6%
viability, T/C (second compound 30 µM, first compound 0.000316 µM): 56.2%
viability, T/C (second compound 30 µM, first compound 0.001 µM): 56.7%
viability, T/C (second compound 30 µM, first compound 0.00316 µM): 68.6%
viability, T/C (second compound 30 µM, first compound 0.01 µM): 1.83%

Cn1cnc2c(F)c(Nc3ccc(Br)cc3Cl)c(C(=O)NOCCO)cc21
viability, T/C (compound 0.00949 µM): 77.5% and 65.7%
viability, T/C (compound 0.03 µM): 49.3% and 60.3%
viability, T/C (compound 0.0949 µM): 45.1% and 51.2%
viability, T/C (compound 0.3 µM): 42.5% and 42.8%
viability, T/C (compound 0.949 µM): 40.2% and 36%
viability, T/C (compound 3 µM): 34% and 28.5%
IC50 (curve of compound): 38.2 nM and 117 nM
